According to article PMC12306498, “Microwave-assisted synthesis of tubulin assembly inhibitors as anticancer agents by aryl ring reversal and conjunctive approach” (RSC Medicinal Chemistry, 2025):
Values joined by “and” are separate entries in the source; they are usually repeats but may differ in a detail not shown here. Equal values may be shown once. “Also recorded” adds a separate entry of the source. Read-outs that look alike come from different tables or passages of the source.

What was measured:
[1] = system: BX-PC3 pancreatic cancer cells; test: BX-PC3 cell viability (MTS assay); format: cell-based; conditions: Homo sapiens, BXPC-3; inhibition of growth of BX-PC3 pancreatic cancer cells; incubation time 48 h
Method: (§1) MCF-7 breast carcinoma cells were obtained from the National Cancer Institute drug screening laboratory. HCT116 cell line was grown in Dulbecco's modified Eagle's medium (DMEM). BX-PC3 cells were grown in RPMI-1640 medium. Both media were supplemented with 10% fetal bovine serum (FBS), 100 U mL^−1 penicillin, […] streptomycin and 1% of L-glutamine. Cell lines were cultured at 37 °C in 5% CO2 and 95% air in a humidified incubator. T-ALL (Jurkat) cells were grown in RPMI-1640 medium. Both media were supplemented with 115 units per mL of penicillin G, 115 μg mL^−1 of streptomycin, and 10% fetal bovine serum (FBS, all purchased from Invitrogen, Milan, Italy). Cancer cells were seeded in tissue treated, flat bottom, 384-well plates (Corning, Corning, NY, USA) in 24 μL of complete medium per well, using a Microlab STAR 96-CORE liquid handling system (Hamilton Bonaduz, Bonaduz, Switzerland).
(§2) Cell viability of HCT116 and BX-PC3 cells was determined using the 3-(4,5-dimethylthiazol-2-yl)-5-(3-carboxymethoxyphenyl)-2-(4-sulfophenyl)-2H-tetrazolium (MTS) colorimetric assay.[38] […] After 48 h of growth, the MTS reagent was added to each well and absorbance at […] was measured by a microplate reader (Victor, PerkinElmer). The results were expressed as % relative to control cells (100%) and IC50 values were calculated using GraphPad Prism statistics software by nonlinear regression analysis.

tubulin [2] = test: Inhibition of tubulin polymerization (tubulin assembly, turbidity at 350 nm); format: biochemical; conditions: tubulin at 10 μM, read-out: Tubulin IC50 ± SD
Method: The assembly reaction mixtures contained 0.8 M monosodium glutamate (pH 6.6 with HCl in a 2 M stock solution), 10 μM tubulin, 4% (v/v) DMSO, and varying concentrations of drug. Following a 15 min preincubation at 30 °C, samples were chilled on ice, GTP to 0.4 mM was added, and turbidity development was followed at 350 nm in a temperature-controlled recording spectrophotometer for 20 min at 30 °C. The extent of reaction was measured. Full experimental details were previously described.[35]

[3] = system: MCF-7 human breast carcinoma cells; test: MCF-7 cell growth inhibition; format: cell-based; conditions: Homo sapiens, read-out: MCF-7 IC50 ± SD
HCT116 spheroids = test: 3D culture (spheroids) from HCT116 cells; format: cell-based; conditions: 160 nM for 48 h
Method: (§3) 3D culturing of BX-PC3 and HCT116 cells were performed seeding 500 cells/well into ultra-low attachment 96-well round-bottomed plates and cultured in supplemented RPMI and DMEM, respectively, at 37 °C under […] atmosphere for 7 days, until spheroids were formed. To evaluate the effect of compound 4 on spheroid growth, a range of doses (10–320 nM) was added to the cell suspension after spheroid formation, and the culture was maintained for 48 h. Spheroid diameters wwere measured using the ZEISS ZEN imaging software from the pictures obtained with an inverted optical microscope (Axio Vert A1, Zeiss, Oberkochen, Germany).

BX-PC3 spheroids = test: 3D culture (spheroids) from BX-PC3 cells; format: cell-based; conditions: 320 nM for 48 h
Method: as §3

tubulin [4] = test: Inhibition of [3H]colchicine binding to tubulin; conditions: for Colch. binding (% ± SD): inhibition of [3H]colchicine binding, tubulin, [3H]colchicine, inhibitor at 1, 5 and 5 μM
Method: The reaction mixtures contained 1.0 μM tubulin, 5.0 μM [^3H]colchicine, and 5.0 or 1.0 μM inhibitor, as indicated, and were incubated for 10 min at 37 °C. Complete details were described previously.[36]

[5] = system: Jurkat T lymphocyte cancer cells; test: Jurkat (T-ALL) cell viability (resazurin assay); format: cell-based; conditions: Homo sapiens, 96 h, inhibition of growth of Jurkat T lymphocyte cancer cells, incubation time 96 h
Method: as §1, with “Cancer cells were seeded in tissue treated, flat bottom, 384-well plates (Corning, Corning, NY, USA) in 24 μL of complete medium per well, using a Microlab STAR 96-CORE liquid handling system (Hamilton Bonaduz, Bonaduz, Switzerland).” left out
For T-ALL, drug stock solutions were prepared for each compound by dissolving them at 10 mM in DMSO. […] The fluorescence signal was measured at 590 nm using a Spark 10 M spectrophotometer (Tecan Group Ltd., Mannedorf, Switzerland). Only plates with Z′ > 0.5 were further analyzed for the drug screening. Raw data were normalized according to the following equation: cell viability (%) = (x − POS)/(NEG − POS) × 100, where x is the relative fluorescence units (RFU) collected from each single well, NEG is the mean of intraplate negative controls (DMSO, corresponding to 100% cell viability), and POS is the mean of intraplate positive controls (benzethonium chloride 75 μM, equal to 0% cell viability). […]

[6] = system: HCT116 colon cancer cells; test: HCT116 cell viability (MTS assay); format: cell-based; conditions: inhibition of growth of HCT116 colon cancer cells, incubation time 48 h
Method: as §1, §2

Compound | IC50 [1] | IC50 (tubulin [2]) | IC50 ([3]; MCF7, cells grown for 96 h) | Spheroid diameter and morphology (HCT116 spheroids) | Spheroid diameter and morphology (BX-PC3 spheroids) | Colch. binding (% ± SD) (tubulin [4]) | Inhibition of [3H]colchicine binding (tubulin [4]; inhibitor at 1 μM, tubulin 1 μM, [3H]colchicine 5 μM) | IC50 [5] | IC50 ([6]; Homo sapiens, HCT-116, 48 h) | IC50 [6] | IC50 ([3]; MCF7, 96 h, cells grown for 96 h)
COc1ccc(-c2cn(-c3ccccn3)cc2C(=O)c2cc(OC)c(OC)c(OC)c2)cc1 [Compound 4, (4-(4-Methoxyphenyl)-1-(pyridin-2-yl)-1H-pyrrol-3-yl)(3,4,5-trimethoxyphenyl)methanone] | 17 nM | 190 ± 6 nM | 9.6 ± 0.8 nM | altered the morphology of treated spheroids; also recorded: significant reduction of spheroid diameter | altered the morphology of treated spheroids; also recorded: significant reduction of spheroid diameter | 78% and 78 ± 1% | 76% | 41 nM | 18 nM | 28 nM | –
COc1cc(C(=O)c2cn(-c3cccnc3)c3ccc(Cl)cc23)cc(OC)c1OC [Compound 26, (5-Chloro-1-(pyridin-3-yl)-1H-indol-3-yl)(3,4,5-trimethoxyphenyl)methanone] | – | 1500 ± 300 nM | – | – | – | 23 ± 4% | – | – | – | – | 306 ± 13.4 nM
COc1cc(C(=O)c2cn(-c3cccnc3)cc2-c2ccc(N(C)C)cc2)cc(OC)c1OC [Compound 13, (4-(4-(Dimethylamino)phenyl)-1-(pyridin-3-yl)-1H-pyrrol-3-yl)(3,4,5-trimethoxyphenyl)methanone] | – | 3400 ± 300 nM | 1000 ± 100 nM | – | – | 9.6 ± 4% | – | – | – | – | –
COc1cc(C(=O)c2cn(-c3ncccn3)cc2-c2ccc([N+](=O)[O-])cc2)cc(OC)c1OC [Compound 21, (4-(4-Nitrophenyl)-1-(pyrimidin-2-yl)-1H-pyrrol-3-yl)(3,4,5-trimethoxyphenyl)methanone] | – | 1300 ± 200 nM | 450 ± 100 nM | – | – | 34 ± 1% | – | – | – | – | –
COc1ccc(-c2cn(-c3ncccn3)cc2C(=O)c2cc(OC)c(OC)c(OC)c2)cc1 [Compound 15, (4-(4-Methoxyphenyl)-1-(pyrimidin-2-yl)-1H-pyrrol-3-yl)(3,4,5-trimethoxyphenyl)methanone] | – | 1100 ± 100 nM | 95 ± 20 nM | – | – | 65 ± 5% | – | – | – | – | –
COc1cc(C(=O)c2cn(-c3ncccn3)cc2-c2ccc(F)cc2)cc(OC)c1OC [Compound 18, (4-(4-Fluorophenyl)-1-(pyrimidin-2-yl)-1H-pyrrol-3-yl)(3,4,5-trimethoxyphenyl)methanone] | – | 2400 ± 80 nM | 150 ± 7 nM | – | – | 70 ± 1% | – | – | – | – | –
